Laboratory results taken from patent US10544146B2, “Bicyclic compounds and their use as antibacterial agents and β-lactamase inhibitors” (priority 2011, dated 2020).

Experiments:
Assay in all cases: MIC, antibacterial and synergistic activity
Format in all cases: cell-based
[1] = test system: A. baumanii JMI 2659; conditions: Acinetobacter baumannii, JMI2659; A. baumanii JMI 2659, Ges-14 (Cpase); substance alone
Method: (§1) In the Tables 10-12, compounds of the present invention were tested in combination with various antibiotics against metallo β-lactamase producing bacteria.

[2] = test system: E. cloacae JMI 36; conditions: Enterobacter cloacae, JMI36; E. cloacae JMI 36, P99; substance alone
Method: as §1

[3] = test system: E. coli ATCC 25922; conditions: Escherichia coli, ATCC25922, E. coli ATCC 25922, enzyme Wt; substance alone
Method: as §1

[4] = test system: E. coli JMI 10767; conditions: Escherichia coli, JMI10767; E. coli JMI 10767, Wt; substance alone
Method: as §1

[5] = test system: E. coli JMI 2671; conditions: Escherichia coli, JMI2671, E. coli JMI 2671, VIM-19 (Cpase); substance alone
Method: as §1

[6] = test system: E. coli JMI 2692; conditions: Escherichia coli, JMI2692; E. coli JMI 2692, NDM-1, TEM-1, CTX-M-15; substance alone
Method: as §1

[7] = test system: K. pneumo JMI 2693; conditions: K. pneumo JMI 2693, NDM-1 (Cpase); substance alone
Method: as §1

[8] = test system: K. pneumo JMI 2697; conditions: K. pneumo JMI 2697, IMP-4 (Cpase); substance alone
Method: as §1

[9] = test system: K. pneumo JMI 2699; conditions: K. pneumo JMI 2699, VIM-1, CTX-M3; substance alone
Method: as §1

[10] = test system: P. aerug JMI 149; conditions: P. aerug JMI 149, Bla+++D+; substance alone
Method: as §1

[11] = test system: E. coli JMI 4103; conditions: Escherichia coli, JMI4103; E. coli JMI 4103, KPC-2, Tem-1, CMY-Type; substance alone
[12] = test system: E. coli JMI 4080; conditions: Escherichia coli, JMI4080, E. coli JMI 4080, Tem-10; substance alone
[13] = test system: E. coli JMI 2665; conditions: Escherichia coli, JMI2665, read-out: MIC alone
[14] = test system: K. pneumo JMI 4109; conditions: K. pneumo JMI 4109, SHV-1, SHV-12; substance alone
[15] = test system: K. pneumo JMI 2673; conditions: K. pneumo JMI 2673, CTX-M14 (ESBL); substance alone
[16] = test system: K. pneumo JMI 2674; conditions: K. pneumo JMI 2674, CTX-M15 (ESBL); substance alone
[17] = test system: K. pneumo JMI 4088; conditions: K. pneumo JMI 4088, KPC-3 (Cpase); substance alone
[18] = test system: K. pneumo JMI 4106; conditions: K. pneumo JMI 4106, KPC-3, TEM-1, SHV-12, SHV-141; substance alone
[19] = test system: K. pneumo JMI 2681; conditions: K. pneumo JMI 2681, Oxa-48 (Cpase); substance alone
[20] = test system: P. aerug JMI 2686; conditions: P. aerug JMI 2686, KPC-2 (Cpase); substance alone
[21] = test system: E. coli JMI 10768; conditions: Escherichia coli, JMI10768; E. coli JMI 10768, CTX-M15 (Weak ESBL); substance alone
[22] = test system: E. coli JMI 10770; conditions: Escherichia coli, JMI10770; E. coli JMI 10770, CTX-M15 (Hyper ESBL); substance alone
[23] = test system: E. coli JMI 11103; conditions: Escherichia coli, JMI11103, E. coli JMI 11103, CTX-M15 (Intermediate ESBL); substance alone

Row | Compound | MIC [1] | MIC [2] | MIC [3] | MIC [4] | MIC [5] | MIC [6] | MIC [7] | MIC [8] | MIC [9] | MIC [10] | MIC [11] | MIC [12] | MIC [13] | MIC [14] | MIC [15] | MIC [16] | MIC [17] | MIC [18] | MIC [19] | MIC [20] | other results
1 | O=C(NNC(=O)[C@H]1CC[C@H]2CN1C(=O)N2OS(=O)(=O)O)C1CNC1 (stereo in doubt) [Ex. 67, (2R,5S)-N′-(azetidin-3-ylcarbonyl)-7-oxo-6-(sulfooxy)-1,6-diazabicyclo[3.2.1]octane-2-carbohydrazide] | > 16 µg/mL | > 16 µg/mL | > 16 µg/mL | > 16 µg/mL | > 16 µg/mL | 8 µg/mL | > 16 µg/mL | 16 µg/mL | > 16 µg/mL | 16 µg/mL | 16 µg/mL | 16 µg/mL | 8 µg/mL | 4 µg/mL | > 16 µg/mL | > 16 µg/mL | 16 µg/mL | 8 µg/mL | > 16 µg/mL | 16 µg/mL | MIC [21]: > 16 µg/mL; MIC [22]: > 16 µg/mL; MIC [23]: > 16 µg/mL
2 | O=C(NNC(=O)[C@H]1CC[C@H]2CN1C(=O)N2OS(=O)(=O)O)C1CC1 (stereo in doubt) [Ex. 47, (2R,5S)-N′-(cyclopropylcarbonyl)-7-oxo-6-(sulfooxy)-1,6-diazabicyclo[3.2.1]octane-2-carbohydrazide] | > 16 µg/mL | > 16 µg/mL | > 16 µg/mL | 8 µg/mL | 8 µg/mL | 8 µg/mL | > 16 µg/mL | > 16 µg/mL | 16 µg/mL | > 16 µg/mL | 2 µg/mL | 4 µg/mL | 2 µg/mL | 2 µg/mL | > 16 µg/mL | > 16 µg/mL | > 16 µg/mL | 16 µg/mL | > 16 µg/mL | > 16 µg/mL | MIC [21]: 16 µg/mL; MIC [22]: 8 µg/mL; MIC [23]: 16 µg/mL
